Results: the RepoRT retention time repository (doi:10.1002/rcm.4015)

Test: RP, Thermo Scientific Hypersil GOLD, 5 × 2.1 mm, 1.9 µm, 45 °C, 0.25 mL/min, estimated dead time 0.044 min; A: water + 0.1% formic acid, pH 3; B: 50% acetonitrile + 50% isopropanol + 0.1% formic acid, pH 3; gradient (min/%B) 0/5 0.5/5 5/50 5.5/95 6.5/95 10/5
Conditions: stereoisomer not certain

| Compound | LC retention time [min] |
| --- | --- |
| CCC=CCC=CCC=CCC=CCC=CCCCC(=O)OCC(O)COP(=O)([O-])OCC[N+](C)(C)C (stereo not given) [lysoPC(20:5)] | 6.55 |
| CCCCCC=CCC=CCC=CCC=CCCCC(=O)OC(COC(=O)CCCCCCCCCCCCC)COP(=O)([O-])OCC[N+](C)(C)C (stereo not given) [PC(34:4)] | 6.97 |
| CCC=CCC=CCC=CCCCCCCCC(=O)OC(COC(=O)CCCCCCCCCCCCCCC)COP(=O)([O-])OCC[N+](C)(C)C (stereo not given) [PC(34:3)] | 7.4 |
| CCCCCC=CCC=CCC=CCC=CCCCC(=O)OC(COC(=O)CCCCCC=CCCCCCCCC)COP(=O)([O-])OCC[N+](C)(C)C (stereo not given) [PC(36:5)] | 7.38 |
| CCC=CCC=CCC=CCC=CCC=CCC=CCCC(=O)OCC(O)COP(=O)([O-])OCC[N+](C)(C)C (stereo not given) [lysoPC(22:6)] | 6.65 |
| CCCCCCCCC=CCC=CCC=CCCCC(=O)OCC(O)COP(=O)([O-])OCC[N+](C)(C)C (stereo not given) [lysoPC(20:3)] | 6.8 |
| CCCCCC=CCC=CCC=CCC=CCCCC(=O)OCC(O)COP(=O)([O-])OCC[N+](C)(C)C (stereo not given) [lysoPC(20:4)] | 6.69 |
| CCC=CCC=CCC=CCC=CCC=CCC=CCCC(=O)OC(COC(=O)CCCCCC=CCCCCCCCC)COP(=O)([O-])OCC[N+](C)(C)C (stereo not given) [PC(38:7)] | 7.37 |
| CCCCCCCCCCCCCCCCOCC(O)COP(=O)([O-])OCC[N+](C)(C)C (stereo not given) [lysoPC(O-16:0)] | 7.08 |
| CCCCCCCCC=CCCCCCCCCOCC(O)COP(=O)([O-])OCC[N+](C)(C)C (stereo not given) [lysoPC(O-18:1)] | 7.1 |
| CCCCCCC=CCCCCCCCC(=O)OCC(O)COP(=O)([O-])OCC[N+](C)(C)C (stereo not given) [lysoPC(16:1)] | 6.67 |
| CCCCCC=CCC=CCC=CCCCCC(=O)OCC(COP(=O)([O-])OCC[N+](C)(C)C)OC(=O)CCCCCCCCCCCCCCCCCCC (stereo not given) [PC(38:3)] | 7.4 |
| CCCCCCCCCCCCCC=CC(O)C(COP(=O)([O-])OCC[N+](C)(C)C)NC(=O)CCCCCCCCCCCCCC (stereo not given) [SM(33:1)] | 6.69 |
| CCCCCC=CCC=CCC=CCC=CCCCC(=O)OC(COC(=O)CCCCCCCCCCCCCCC)COP(=O)(O)OCC[N+](C)(C)C (stereo not given) [PC(36:4)] | 7.43 |
| CCCCCCCCCCCCCCCCCC(=O)OCC(O)COP(=O)(O)OCCN (stereo not given) [lysoPE(18:0)] | 6.75 |
| CCCCCC=CCC=CCCCCCCCC(=O)OCC(O)COP(=O)([O-])OCC[N+](C)(C)C (stereo not given) [lysoPC(18:2)] | 6.72 |
| CCC=CCC=CCC=CCCCCCCCC(=O)OCC(O)COP(=O)([O-])OCC[N+](C)(C)C (stereo not given) [lysoPC(18:3)] | 6.59 |
| CCCCCC=CCC=CCC=CCC=CCCCC(=O)OCC(O)COP(=O)(O)OCCN (stereo not given) [lysoPE(20:4)] | 6.69 |
| CCC=CCC=CCC=CCC=CCC=CCC=CCCC(=O)OC(COC(=O)CCCCCCCCCCCCCCC)COP(=O)([O-])OCC[N+](C)(C)C (stereo not given) [PC(38:6)] | 7.39 |
| CCCCCCCCCCCCCCCC(=O)OCC(O)COP(=O)([O-])OCC[N+](C)(C)C (stereo not given) [lysoPC(16:0)] | 6.89 |
| CCCCCCCCC=CCCCCCCCC(=O)OCC(O)COP(=O)([O-])OCC[N+](C)(C)C (stereo not given) [lysoPC(18:1)] | 6.93 |
| CCCCCC=CCC=CCC=CCC=CCCCCCC(=O)OC(COC(=O)CCCCCCCCCCCCCCC)COP(=O)([O-])OCC[N+](C)(C)C (stereo not given) [PC(38:4)] | 7.4 |
| CCCCCCCCC=CCCCCCCCC(=O)OC(COC(=O)CCCCCCCCCCCCCCC)COP(=O)([O-])OCC[N+](C)(C)C (stereo not given) [PC(34:1)] | 7.23 |
| CCCCCC=CCC=CCC=CCC=CCC=CCCC(=O)OC(COC(=O)CCCCCCCCCCCCCCCCC)COP(=O)([O-])OCC[N+](C)(C)C (stereo not given) [PC(40:5)] | 7.4 |
| CCCCCC=CCC=CCC=CCC=CCC=CCCC(=O)OC(COC(=O)CCCCCCCCCCCCCCC)COP(=O)([O-])OCC[N+](C)(C)C (stereo not given) [PC(38:5)] | 7.41 |
| CCCCCCCCC=CCCCCCCCC(=O)OCC(O)COP(=O)(O)OCCN (stereo not given) [lysoPE(18:1)] | 6.92 |
| CCCCCCCCCCCCCC(=O)OCC(O)COP(=O)([O-])OCC[N+](C)(C)C (stereo not given) [lysoPC(14:0)] | 6.62 |
| CCC=CCC=CCC=CCC=CCC=CCC=CCCC(=O)OC(COC(=O)CCCCCCCCCCCCCCCCC)COP(=O)([O-])OCC[N+](C)(C)C (stereo not given) [PC(40:6)] | 7.14 |
| CCCCCC=CCC=CCCCCCCCCCC(=O)OC(COC(=O)CCCCCCCCCCCCC)COP(=O)([O-])OCC[N+](C)(C)C (stereo not given) [PC(34:2)] | 6.89 |
| CCCCCC=CCC=CCC=CCC=CCCCCCC(=O)OCC(COP(=O)([O-])OCC[N+](C)(C)C)OC(=O)CCCCC=CCC=CCC=CCCCCC (stereo not given) [PC(40:7)] | 7.4 |
